In patent publication US20260284028A1, “FUSED BICYCLIC HETEROCYCLYL COMPOUNDS AS CCR4 MODULATORS” (AURIGENE ONCOLOGY LIMITED, priority 2023, published 2026):
Where two headings read alike, the source gives them in different places.

Biological target: T1, CCR4 (Homo sapiens, UniProt P51679)
T1 construct: expressed in transfected cells; host or cells: CHO-K1
T1 sequence (P51679 1-360): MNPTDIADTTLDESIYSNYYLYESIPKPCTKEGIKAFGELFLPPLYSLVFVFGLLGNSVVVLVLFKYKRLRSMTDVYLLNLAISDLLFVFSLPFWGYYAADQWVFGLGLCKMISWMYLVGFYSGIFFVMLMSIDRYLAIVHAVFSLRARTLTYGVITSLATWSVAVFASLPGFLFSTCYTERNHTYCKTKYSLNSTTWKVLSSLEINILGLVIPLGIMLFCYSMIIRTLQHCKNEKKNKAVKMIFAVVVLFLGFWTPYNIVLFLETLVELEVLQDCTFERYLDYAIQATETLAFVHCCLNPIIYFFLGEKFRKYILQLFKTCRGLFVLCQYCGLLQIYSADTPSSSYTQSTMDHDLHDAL
Test: β-Arrestin recruitment assay (CHO-K1 CCR4 β-Arrestin cells stimulated with recombinant human CCL22)
Format: cell-based
Conditions: CCL22 10 nM stimulation; for IC50: read-out: CCR4 antagonistic activity IC50 (μM) in range; for inhibition: read-out: % inhibition at 5 μM/30 μM (% E-Max)
Protocol: CHO-K1 CCR4 β-Arrestin cells were seeded and incubated overnight at 37° C. in a CO2 incubator for adherence. Next day, cells were pretreated with various concentrations of CCR4 modulators for 30 mins at 37° C. The cells were stimulated with recombinant human CCL22 (10 nM) and further incubated for 90 mins. Working detection solution was added and incubated at room temperature for 1 hour after which the chemiluminescent signal was read using a luminometer.
Exemplary compounds of the present application were screened by the above-mentioned assay and the results were tabulated.

[1] = CHO-K1, read-out: % inhibition 30 μM (% E-Max)

Structure (SMILES) | IC50 | inhibition [1] | % inhibition at 5 μM/30 μM (% E-Max) | inhibition (CHO-K1, at 30 μM)
CC(Nc1c(F)ccc2nc(N3CC([C@H]4CCCN([C@H]5C[C@](C)(C(=O)O)C5)C4)C3)sc12)c1ncc(Cl)cc1Cl (mixture of isomers) [Compound 35, (1R,3r)-3-((3R)-3-(1-(7-((1-(3,5-dichloropyridin-2-yl)ethyl)amino)-6-fluorobenzo[d]thiazol-2-yl)azetidin-3-yl)piperidin-1-yl)-1-methylcyclobutane-1-carboxylic acid] | < 0.25 µM | 102% |  | 
C[C@@H](Nc1c(F)ccc2nc(N3CC(C4CN([C@H]5C[C@](C)(C(=O)O)C5)CCO4)C3)sc12)c1ccc(Cl)cc1Cl (single isomer, unassigned) [Compound 27] | 0.25 to 0.5 µM |  | 99% at 5 μM | 
C[C@@H](Nc1c(F)ccc2nc(N3CC(C4CN([C@H]5C[C@](C)(C(=O)O)C5)CCO4)C3)sc12)c1ccc(Cl)cc1Cl (single isomer, unassigned) [Compound 28] |  |  | 72% at 5 μM | 
C[C@@H](Nc1c(F)cnc2nc(N3CC([C@H]4CCCN([C@H]5C[C@](C)(C(=O)O)C5)C4)C3)sc12)c1ncc(Cl)cc1Cl (single isomer, unassigned) [Compound 42] | 0.25 to 0.5 µM | 103% |  | 
C[C@H](Nc1c(F)cnc2nc(N3CC([C@H]4CCCN([C@H]5C[C@](C)(C(=O)O)C5)C4)C3)sc12)c1ncc(Cl)cc1Cl (single isomer, unassigned) [Compound 43] | > 0.5 µM | 95% |  | 
C[C@@H](Nc1c(F)cnc2nc(N3CC([C@H]4CCCN([C@H]5C[C@](C)(C(=O)O)C5)C4)C3)sc12)c1ncc(F)cc1F (single isomer, unassigned) [Compound 45] | > 0.5 µM | 89% |  | 
C[C@H](Nc1c(F)cnc2nc(N3CC([C@H]4CCCN([C@H]5C[C@](C)(C(=O)O)C5)C4)C3)sc12)c1ncc(F)cc1F (single isomer, unassigned) [Compound 46] | 0.25 to 0.5 µM | 99% |  | 
C[C@H](Nc1c(OC(F)F)ccc2nc(N3CC([C@H]4CCCN([C@H]5C[C@](C)(C(=O)O)C5)C4)C3)sc12)c1ncc(Cl)cc1Cl (single isomer, unassigned) [Compound 49] | 0.25 to 0.5 µM | 99% |  | 
C[C@@H](Nc1c(OC(F)F)ccc2nc(N3CC([C@H]4CCCN([C@H]5C[C@](C)(C(=O)O)C5)C4)C3)sc12)c1ncc(F)cc1F (single isomer, unassigned) [Compound 51] | > 0.5 µM |  |  | 77%
C[C@@H](Nc1c(Cl)ccc2nc(N3CC([C@H]4CCCN([C@H]5C[C@](C)(C(=O)O)C5)C4)C3)oc12)c1ccc(Cl)cc1Cl [Compound 1, (1R,3r)-3-((R)-3-(1-(6-Chloro-7-(((R)-1-(2,4-dichlorophenyl)ethyl)amino)benzo[d]oxazol-2-yl)azetidin-3-yl)piperidin-1-yl)-1-methylcyclobutane-1-carboxylic acid] | < 0.25 µM |  |  | 103%
C[C@@H](Nc1cccc2nc(N3CC([C@H]4CCCN([C@H]5C[C@](C)(C(=O)O)C5)C4)C3)oc12)c1ccc(Cl)cc1Cl [Compound 2, (1R,3r)-3-((R)-3-(1-(7-(((R)-1-(2,4-dichlorophenyl)ethyl)amino)benzo[d]oxazol-2-yl)azetidin-3-yl)piperidin-1-yl)-1-methylcyclobutane-1-carboxylic acid] | < 0.25 µM |  |  | 99.5%
C[C@@H](Nc1cccc2c1nc(N1CC([C@H]3CCCN([C@H]4C[C@](C)(C(=O)O)C4)C3)C1)n2C)c1ccc(Cl)cc1Cl [Compound 4] |  |  |  | 71%
Cc1cc(N[C@H](C)c2ccc(Cl)cc2Cl)c2oc(N3CC([C@H]4CCCN([C@H]5C[C@](C)(C(=O)O)C5)C4)C3)nc2c1 [Compound 5] | 0.25 to 0.5 µM |  |  | 102%
C[C@@H](Nc1c(F)ccc2nc(N3CC([C@H]4CCCN([C@H]5C[C@](C)(C(=O)O)C5)C4)C3)oc12)c1ccc(Cl)cc1Cl [Compound 6] | < 0.25 µM |  |  | 104%
C[C@@H](Nc1cc(Cl)cc2nc(N3CC([C@H]4CCCN([C@H]5C[C@](C)(C(=O)O)C5)C4)C3)oc12)c1ccc(Cl)cc1Cl [Compound 7] | 0.25 to 0.5 µM |  |  | 101%
C[C@@H](Nc1cccc2nc(N3CC([C@H]4CCCN([C@H]5C[C@](C)(C(=O)O)C5)C4)C3)sc12)c1ccc(Cl)cc1Cl [Compound 8] | 0.25 to 0.5 µM | 102% |  | 

Structure (SMILES) | IC50 | inhibition [1] | % inhibition at 5 μM/30 μM (% E-Max) | inhibition (CHO-K1, at 30 μM)
Cc1cc2nc(N3CC([C@H]4CCCN([C@H]5C[C@](C)(C(=O)O)C5)C4)C3)oc2c(N[C@H](C)c2ccc(Cl)cc2Cl)c1Cl [Compound 9] | < 0.25 µM | 103% |  | 
COc1ccc2nc(N3CC([C@H]4CCCN([C@H]5C[C@](C)(C(=O)O)C5)C4)C3)oc2c1N[C@H](C)c1ccc(Cl)cc1Cl [Compound 10] | 0.25 to 0.5 µM | 93% |  | 
C[C@@H](Nc1c(OC(F)F)ccc2nc(N3CC([C@H]4CCCN([C@H]5C[C@](C)(C(=O)O)C5)C4)C3)oc12)c1ccc(Cl)cc1Cl [Compound 11] | < 0.25 µM | 101% |  | 
C[C@@H](Nc1c(OC(F)(F)F)ccc2nc(N3CC([C@H]4CCCN([C@H]5C[C@](C)(C(=O)O)C5)C4)C3)oc12)c1ccc(Cl)cc1Cl [Compound 12] | 0.25 to 0.5 µM | 99.3% |  | 
C[C@@H](Nc1c(C(F)(F)F)ccc2nc(N3CC([C@H]4CCCN([C@H]5C[C@](C)(C(=O)O)C5)C4)C3)oc12)c1ccc(Cl)cc1Cl [Compound 13] | < 0.25 µM | 101% |  | 
C[C@@H](Nc1nccc2nc(N3CC([C@H]4CCCN([C@H]5C[C@](C)(C(=O)O)C5)C4)C3)oc12)c1ccc(Cl)cc1Cl [Compound 14] | 0.25 to 0.5 µM | 96.4% |  | 
C[C@@H](Nc1cncc2nc(N3CC([C@H]4CCCN([C@H]5C[C@](C)(C(=O)O)C5)C4)C3)oc12)c1ccc(Cl)cc1Cl [Compound 15] | 0.25 to 0.5 µM | 101% |  | 
C[C@@H](Nc1ccnc2nc(N3CC([C@H]4CCCN([C@H]5C[C@](C)(C(=O)O)C5)C4)C3)oc12)c1ccc(Cl)cc1Cl [Compound 16] | < 0.25 µM | 103% |  | 
C[C@@H](Nc1c(Cl)cnc2nc(N3CC([C@H]4CCCN([C@H]5C[C@](C)(C(=O)O)C5)C4)C3)oc12)c1ccc(Cl)cc1Cl [Compound 17] | 0.25 to 0.5 µM | 102% |  | 
Cc1ccc2nc(N3CC([C@H]4CCCN([C@H]5C[C@](C)(C(=O)O)C5)C4)C3)oc2c1N[C@H](C)c1ccc(Cl)cc1Cl [Compound 18] | < 0.25 µM | 103% |  | 
C[C@@H](Nc1c(C(N)=O)ccc2nc(N3CC([C@H]4CCCN([C@H]5C[C@](C)(C(=O)O)C5)C4)C3)oc12)c1ccc(Cl)cc1Cl [Compound 19] | 0.25 to 0.5 µM | 93.8% |  | 
C[C@@H](Nc1c(C(=O)N(C)C)ccc2nc(N3CC([C@H]4CCCN([C@H]5C[C@](C)(C(=O)O)C5)C4)C3)oc12)c1ccc(Cl)cc1Cl [Compound 20] |  | 41.5% |  | 
C[C@@H](Nc1c(C#N)ccc2nc(N3CC([C@H]4CCCN([C@H]5C[C@](C)(C(=O)O)C5)C4)C3)oc12)c1ccc(Cl)cc1Cl [Compound 21] | < 0.25 µM | 103% |  | 
C[C@@H](Nc1cccc2nc(N3CC([C@H]4CCCN([C@H]5C[C@](C)(C(=O)O)C5)C4)C3)n(C)c12)c1ccc(Cl)cc1Cl [Compound 22] |  |  |  | 29.5%
C[C@@H](Nc1c(Cl)ccc2nc(N3CC([C@H]4CCCN([C@H]5C[C@](C)(C(=O)O)C5)C4)C3)sc12)c1ccc(Cl)cc1Cl [Compound 23] | < 0.25 µM | 104% |  | 
